Laboratory results as given in patent US20140100217A1, “[…] OF PROLINE-RICH PEPTIDES AND THEIR USE” (priority 2012, published 2014).
No end group written: not given here.

Key:
VASP-EVH1 domain [1] = target: T1, VASP-EVH1 domain (Homo sapiens, UniProt P50552); test: Binding affinity of ligand peptides by kinetic Biacore method
T1 construct: ligand peptides with the VASP-EVH1 domain in solution
Method: With the aid of the synthetic compound 85, ligand peptides with partially or completely replaced proline sequences were synthesized by way of example and investigated for their interaction with the EVH1 domain (pp=component 85). […] The binding affinities were determined by means of NMR titration, the kinetic Biacore method or by means of fluorescence titration.

VASP-EVH1 domain [2] = target: T1, VASP-EVH1 domain; assay type: binding

T1 sequence (P50552 2-113): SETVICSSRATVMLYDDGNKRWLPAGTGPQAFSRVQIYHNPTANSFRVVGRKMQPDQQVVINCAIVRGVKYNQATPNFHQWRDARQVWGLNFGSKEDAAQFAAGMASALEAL

Compound | Kd (VASP-EVH1 domain [1]) [µM] | binding affinity (KD) (VASP-EVH1 domain [2])
CC(C)C[C@H](NC(=O)[C@H](CCC(=O)O)NC(=O)[C@H](CC(=O)O)NC(=O)[C@H](CCC(=O)O)NC(=O)[C@@H](NC(=O)[C@@H]1CCCN1C(=O)[C@@H]1CC[C@@H]2C=C[C@@H](C)[C@H](NC(=O)[C@@H]3CCCN3C(=O)[C@H](Cc3c[nH]c4ccccc34)NC(=O)[C@H](CCC(=O)O)NC(=O)[C@H](Cc3ccccc3)NC(=O)[C@@H](N)CO)C(=O)N21)[C@@H](C)O)C(=O)O [SFEWPppPTEDEL (II)] | 3.7 to 12.5 | 
FPPPPT [FPPPPT] |  | measurable affinity for the VASP-EVH1 domain could no longer be determined
